Tests used:
Rattus norvegicus [1] = species: Rattus norvegicus; assay: Compound was evaluated for the measurement of Cerebral blood flow in medial geniculate body of Rats (hypercapnia); assay type: functional
Rattus norvegicus [2] = species: Rattus norvegicus; assay: Compound was evaluated for the measurement of Cerebral blood flow in medial geniculate body of Rats (normocapnia); assay type: functional
Rattus norvegicus [3] = species: Rattus norvegicus; assay: Compound was evaluated for the measurement of Cerebral blood flow in nucleus accumbens of Rats (hypercapnia); assay type: functional, Brain
Rattus norvegicus [4] = species: Rattus norvegicus; assay: Compound was evaluated for the measurement of Cerebral blood flow in nucleus accumbens of Rats (normocapnia); assay type: functional, Brain
Rattus norvegicus [5] = species: Rattus norvegicus; assay: Compound was evaluated for the measurement of Cerebral blood flow in nucleus ruber of Rats (hypercapnia); assay type: functional, Brain
Rattus norvegicus [6] = species: Rattus norvegicus; assay: Compound was evaluated for the measurement of Cerebral blood flow in nucleus ruber of Rats (normocapnia); assay type: functional, Brain
Rattus norvegicus [7] = species: Rattus norvegicus; assay: Compound was evaluated for the measurement of Cerebral blood flow in parietal cortex of Rats (hypercapnia); assay type: functional
Rattus norvegicus [8] = species: Rattus norvegicus; assay: Compound was evaluated for the measurement of Cerebral blood flow in parietal cortex of Rats (normocapnia); assay type: functional
Rattus norvegicus [9] = species: Rattus norvegicus; assay: Compound was evaluated for the measurement of Cerebral blood flow in piriform cortex of Rats (normocapnia); assay type: functional
Rattus norvegicus [10] = species: Rattus norvegicus; assay: Compound was evaluated for the measurement of Cerebral blood flow in sensorimotor cortex of Rats (hypercapnia); assay type: functional, Brain
Rattus norvegicus [11] = species: Rattus norvegicus; assay: Compound was evaluated for the measurement of Cerebral blood flow in sensorimotor cortex of Rats (normocapnia); assay type: functional, Brain
Rattus norvegicus [12] = species: Rattus norvegicus; assay: Compound was evaluated for the measurement of Cerebral blood flow in septal nucleus of Rats (hypercapnia); assay type: functional, Brain
Rattus norvegicus [13] = species: Rattus norvegicus; assay: Compound was evaluated for the measurement of Cerebral blood flow in septal nucleus of Rats (normocapnia); assay type: functional, Brain
Rattus norvegicus [14] = species: Rattus norvegicus; assay: Compound was evaluated for the measurement of Cerebral blood flow in substantia nigra of Rats (hypercapnia); assay type: functional
Rattus norvegicus [15] = species: Rattus norvegicus; assay: Compound was evaluated for the measurement of Cerebral blood flow in substantia nigra of Rats (normocapnia); assay type: functional
Rattus norvegicus [16] = species: Rattus norvegicus; assay: Compound was evaluated for the measurement of Cerebral blood flow in superior coliculus of Rats (hypercapnia); assay type: functional, Brain
Rattus norvegicus [17] = species: Rattus norvegicus; assay: Compound was evaluated for the measurement of Cerebral blood flow in amygdala of Rats (hypercapnia); assay type: functional
Rattus norvegicus [18] = species: Rattus norvegicus; assay: Compound was evaluated for the measurement of Cerebral blood flow in amygdala of Rats (normocapnia); assay type: functional
Rattus norvegicus [19] = species: Rattus norvegicus; assay: Compound was evaluated for the measurement of Cerebral blood flow in auditory cortex of Rats (hypercapnia); assay type: functional
Rattus norvegicus [20] = species: Rattus norvegicus; assay: Compound was evaluated for the measurement of Cerebral blood flow in caudoputamen of Rats ((hypercapnia); assay type: functional, Brain
Rattus norvegicus [21] = species: Rattus norvegicus; assay: Compound was evaluated for the measurement of Cerebral blood flow in superior coliculus of Rats (normocapnia); assay type: functional, Brain
Rattus norvegicus [22] = species: Rattus norvegicus; assay: Compound was evaluated for the measurement of Cerebral blood flow in thalamus of Rats (hypercapnia); assay type: functional
Rattus norvegicus [23] = species: Rattus norvegicus; assay: Compound was evaluated for the measurement of Cerebral blood flow in thalamus of Rats (normocapnia); assay type: functional
Rattus norvegicus [24] = species: Rattus norvegicus; assay: Compound was evaluated for the measurement of Cerebral blood flow in visual cortex of Rats (hypercapnia); assay type: functional
Rattus norvegicus [25] = species: Rattus norvegicus; assay: Compound was evaluated for the measurement of Cerebral blood flow in visual cortex of Rats (normocapnia); assay type: functional
Rattus norvegicus [26] = species: Rattus norvegicus; assay: Compound was evaluated for the measurement of Cerebral blood flow in caudoputamen of Rats (normocapnia); assay type: functional, Brain
Rattus norvegicus [27] = species: Rattus norvegicus; assay: Compound was evaluated for the measurement of Cerebral blood flow in cerebellum of Rats (hypercapnia); assay type: functional
Rattus norvegicus [28] = species: Rattus norvegicus; assay: Compound was evaluated for the measurement of Cerebral blood flow in cerebellum of Rats (normocapnia); assay type: functional
Rattus norvegicus [29] = species: Rattus norvegicus; assay: Compound was evaluated for the measurement of Cerebral blood flow in cingulate cortex of Rats (hypercapnia); assay type: functional, Brain
Rattus norvegicus [30] = species: Rattus norvegicus; assay: Compound was evaluated for the measurement of Cerebral blood flow in cingulate cortex of Rats (normocapnia); assay type: functional, Brain
Rattus norvegicus [31] = species: Rattus norvegicus; assay: Compound was evaluated for the measurement of Cerebral blood flow in frontal cortex of Rats (hypercapnia); assay type: functional
Rattus norvegicus [32] = species: Rattus norvegicus; assay: Compound was evaluated for the measurement of Cerebral blood flow in frontal cortex of Rats (normocapnia); assay type: functional
Rattus norvegicus [33] = species: Rattus norvegicus; assay: Compound was evaluated for the measurement of Cerebral blood flow in globus pallidus of Rats (hypercapnia); assay type: functional
Rattus norvegicus [34] = species: Rattus norvegicus; assay: Compound was evaluated for the measurement of Cerebral blood flow in globus pallidus of Rats (normocapnia); assay type: functional
Rattus norvegicus [35] = species: Rattus norvegicus; assay: Compound was evaluated for the measurement of Cerebral blood flow in habenula of Rats (hypercapnia); assay type: functional
Rattus norvegicus [36] = species: Rattus norvegicus; assay: Compound was evaluated for the measurement of Cerebral blood flow in habenula of Rats (normocapnia); assay type: functional
Rattus norvegicus [37] = species: Rattus norvegicus; assay: Compound was evaluated for the measurement of Cerebral blood flow in hippocampus cortex of Rats (hypercapnia); assay type: functional
Rattus norvegicus [38] = species: Rattus norvegicus; assay: Compound was evaluated for the measurement of Cerebral blood flow in hippocampus cortex of Rats (normocapnia); assay type: functional
Rattus norvegicus [39] = species: Rattus norvegicus; assay: Compound was evaluated for the measurement of Cerebral blood flow in hypothalamus of Rats (hypercapnia); assay type: functional
Rattus norvegicus [40] = species: Rattus norvegicus; assay: Compound was evaluated for the measurement of Cerebral blood flow in hypothalamus of Rats (normocapnia); assay type: functional
Rattus norvegicus [41] = species: Rattus norvegicus; assay: Compound was evaluated for the measurement of Cerebral blood flow in inferior coliculus of Rats (hypercapnia); assay type: functional, Brain
Rattus norvegicus [42] = species: Rattus norvegicus; assay: Compound was evaluated for the measurement of Cerebral blood flow in inferior coliculus of Rats (normocapnia); assay type: functional, Brain
Rattus norvegicus [43] = species: Rattus norvegicus; assay: Compound was evaluated for the measurement of Cerebral blood flow in lateral geniculate body of Rats (hypercapnia); assay type: functional
Rattus norvegicus [44] = species: Rattus norvegicus; assay: Compound was evaluated for the measurement of Cerebral blood flow in lateral geniculate body of Rats (normocapnia); assay type: functional
Rattus norvegicus [45] = species: Rattus norvegicus; assay: Compound was evaluated for the measurement of Cerebral blood flow in auditory cortex of Rats (normocapnia); assay type: functional
Rattus norvegicus [46] = species: Rattus norvegicus; assay: Compound was evaluated for the measurement of Cerebral blood flow in piriform cortex of Rats (hypercapnia); assay type: functional

Cc1c(I)c(=O)n(-c2ccccc2)n1C [IODOANTIPYRINE]
Blood flow (Rattus norvegicus [1]): 5.18 100ml g-1 min-1 | Blood flow (Rattus norvegicus [2]): 1.82 100ml g-1 min-1 | Blood flow (Rattus norvegicus [3]): 4.18 100ml g-1 min-1 | Blood flow (Rattus norvegicus [4]): 1.5 100ml g-1 min-1 | Blood flow (Rattus norvegicus [5]): 3.49 100ml g-1 min-1 | Blood flow (Rattus norvegicus [6]): 1.45 100ml g-1 min-1 | Blood flow (Rattus norvegicus [7]): 5.5 100ml g-1 min-1 | Blood flow (Rattus norvegicus [8]): 1.89 100ml g-1 min-1 | Blood flow (Rattus norvegicus [9]): 1.12 100ml g-1 min-1 | Blood flow (Rattus norvegicus [10]): 5.75 100ml g-1 min-1 | Blood flow (Rattus norvegicus [11]): 1.98 100ml g-1 min-1 | Blood flow (Rattus norvegicus [12]): 3.21 100ml g-1 min-1 | Blood flow (Rattus norvegicus [13]): 0.85 100ml g-1 min-1 | Blood flow (Rattus norvegicus [14]): 3.21 100ml g-1 min-1 | Blood flow (Rattus norvegicus [15]): 1.01 100ml g-1 min-1 | Blood flow (Rattus norvegicus [16]): 3.78 100ml g-1 min-1 | Blood flow (Rattus norvegicus [17]): 3.09 100ml g-1 min-1 | Blood flow (Rattus norvegicus [18]): 1.06 100ml g-1 min-1 | Blood flow (Rattus norvegicus [19]): 5.79 100ml g-1 min-1 | Blood flow (Rattus norvegicus [20]): 3.77 100ml g-1 min-1 | Blood flow (Rattus norvegicus [21]): 1.48 100ml g-1 min-1 | Blood flow (Rattus norvegicus [22]): 4.77 100ml g-1 min-1 | Blood flow (Rattus norvegicus [23]): 1.63 100ml g-1 min-1 | Blood flow (Rattus norvegicus [24]): 4.08 100ml g-1 min-1 | Blood flow (Rattus norvegicus [25]): 1.52 100ml g-1 min-1 | Blood flow (Rattus norvegicus [26]): 1.41 100ml g-1 min-1 | Blood flow (Rattus norvegicus [27]): 2.7 100ml g-1 min-1 | Blood flow (Rattus norvegicus [28]): 0.82 100ml g-1 min-1 | Blood flow (Rattus norvegicus [29]): 3.9 100ml g-1 min-1 | Blood flow (Rattus norvegicus [30]): 1.33 100ml g-1 min-1 | Blood flow (Rattus norvegicus [31]): 4.67 100ml g-1 min-1 | Blood flow (Rattus norvegicus [32]): 2.03 100ml g-1 min-1 | Blood flow (Rattus norvegicus [33]): 2.61 100ml g-1 min-1 | Blood flow (Rattus norvegicus [34]): 0.66 100ml g-1 min-1 | Blood flow (Rattus norvegicus [35]): 5.23 100ml g-1 min-1 | Blood flow (Rattus norvegicus [36]): 1.64 100ml g-1 min-1 | Blood flow (Rattus norvegicus [37]): 2.84 100ml g-1 min-1 | Blood flow (Rattus norvegicus [38]): 0.87 100ml g-1 min-1 | Blood flow (Rattus norvegicus [39]): 3.14 100ml g-1 min-1 | Blood flow (Rattus norvegicus [40]): 1.05 100ml g-1 min-1 | Blood flow (Rattus norvegicus [41]): 4.76 100ml g-1 min-1 | Blood flow (Rattus norvegicus [42]): 1.99 100ml g-1 min-1 | Blood flow (Rattus norvegicus [43]): 3.97 100ml g-1 min-1 | Blood flow (Rattus norvegicus [44]): 1.4 100ml g-1 min-1 | Blood flow (Rattus norvegicus [45]): 3.12 100ml g-1 min-1 | Blood flow (Rattus norvegicus [46]): 3.11 100ml g-1 min-1

Cc1c(C(C)C)c(=O)n(-c2ccccc2)n1C [PROPYPHENAZONE]
Blood flow (Rattus norvegicus [1]): 6.94 100ml g-1 min-1 | Blood flow (Rattus norvegicus [2]): 2.18 100ml g-1 min-1 | Blood flow (Rattus norvegicus [3]): 5.49 100ml g-1 min-1 | Blood flow (Rattus norvegicus [4]): 1.45 100ml g-1 min-1 | Blood flow (Rattus norvegicus [5]): 4.91 100ml g-1 min-1 | Blood flow (Rattus norvegicus [6]): 1.36 100ml g-1 min-1 | Blood flow (Rattus norvegicus [7]): 6.95 100ml g-1 min-1 | Blood flow (Rattus norvegicus [8]): 1.89 100ml g-1 min-1 | Blood flow (Rattus norvegicus [9]): 1.05 100ml g-1 min-1 | Blood flow (Rattus norvegicus [10]): 7.24 100ml g-1 min-1 | Blood flow (Rattus norvegicus [11]): 1.91 100ml g-1 min-1 | Blood flow (Rattus norvegicus [12]): 3.34 100ml g-1 min-1 | Blood flow (Rattus norvegicus [13]): 0.91 100ml g-1 min-1 | Blood flow (Rattus norvegicus [14]): 3.9 100ml g-1 min-1 | Blood flow (Rattus norvegicus [15]): 1 100ml g-1 min-1 | Blood flow (Rattus norvegicus [16]): 4.66 100ml g-1 min-1 | Blood flow (Rattus norvegicus [17]): 3.65 100ml g-1 min-1 | Blood flow (Rattus norvegicus [18]): 0.95 100ml g-1 min-1 | Blood flow (Rattus norvegicus [19]): 5.66 100ml g-1 min-1 | Blood flow (Rattus norvegicus [20]): 4.18 100ml g-1 min-1 | Blood flow (Rattus norvegicus [21]): 1.49 100ml g-1 min-1 | Blood flow (Rattus norvegicus [22]): 6.84 100ml g-1 min-1 | Blood flow (Rattus norvegicus [23]): 1.73 100ml g-1 min-1 | Blood flow (Rattus norvegicus [24]): 4.97 100ml g-1 min-1 | Blood flow (Rattus norvegicus [25]): 1.3 100ml g-1 min-1 | Blood flow (Rattus norvegicus [26]): 1.35 100ml g-1 min-1 | Blood flow (Rattus norvegicus [27]): 1.98 100ml g-1 min-1 | Blood flow (Rattus norvegicus [28]): 0.83 100ml g-1 min-1 | Blood flow (Rattus norvegicus [29]): 3.45 100ml g-1 min-1 | Blood flow (Rattus norvegicus [30]): 1.34 100ml g-1 min-1 | Blood flow (Rattus norvegicus [31]): 5.34 100ml g-1 min-1 | Blood flow (Rattus norvegicus [32]): 2.26 100ml g-1 min-1 | Blood flow (Rattus norvegicus [33]): 2.85 100ml g-1 min-1 | Blood flow (Rattus norvegicus [34]): 0.73 100ml g-1 min-1 | Blood flow (Rattus norvegicus [35]): 5.29 100ml g-1 min-1 | Blood flow (Rattus norvegicus [36]): 1.43 100ml g-1 min-1 | Blood flow (Rattus norvegicus [37]): 2.77 100ml g-1 min-1 | Blood flow (Rattus norvegicus [38]): 0.87 100ml g-1 min-1 | Blood flow (Rattus norvegicus [39]): 3.63 100ml g-1 min-1 | Blood flow (Rattus norvegicus [40]): 0.97 100ml g-1 min-1 | Blood flow (Rattus norvegicus [41]): 5.3 100ml g-1 min-1 | Blood flow (Rattus norvegicus [42]): 1.99 100ml g-1 min-1 | Blood flow (Rattus norvegicus [43]): 5.46 100ml g-1 min-1 | Blood flow (Rattus norvegicus [44]): 1.45 100ml g-1 min-1 | Blood flow (Rattus norvegicus [45]): 2.36 100ml g-1 min-1 | Blood flow (Rattus norvegicus [46]): 3.56 100ml g-1 min-1
